Source: US20220028483A1, “SYSTEMS AND METHODS FOR CLASSIFYING TUMORS” (PRESIDENT AND FELLOWS OF HARVARD COLLEGE, priority 2018, published 2022)

Test system: breast cancer cell lines
Test: Drug response (IC50, GDSC data) of breast cancer cell lines classified Signature 3-positive or -negative by SigMA
Type: cell-based
Conditions: five Signature 3-positive vs twelve Signature 3-negative breast cancer cell lines; p=0.044, Kolmogorov-Smirnov test
From the text: To test the hypothesis that the presence of Signature 3 indicates susceptibility to PARP inhibition, the response of diverse cancer cell lines was examed to the two popular PARP inhibitors olaparib and velirapib (Supplementary Methods Section 12). The disclosed SigMA example algorithm was first applied to 700 cell lines from the Cancer Cell Line Encyclopedia (CCLE) project (Basu et al., 2013) to identify those with Signature 3. Mutation calls from a 1651-gene panel and copy number calls from single-nucleotide polymorphism (SNP) arrays were available for each cell line. In applying SigMA, a stringent filter was used to discriminate the cell lines with Signature 3 mutations from those without Signature 3 but with a large number of in vitro culture-associated mutations (Online Methods and Supplementary Methods Section 12). Also, cell lines with MSI signatures were removed to minimize their confounding effect (see Vilar Sanchez et al. (2009), and Supplementary FIG. 6f). […]
Among 1074 cell lines in total, the mutational spectra of 700 cell lines were analyzed of major tumor types with SigMA, but only 136 of these had drug response data for either olaparib or veliparib. […]

## O=C(c1cc(Cc2n[nH]c(=O)c3ccccc23)ccc1F)N1CCN(C(=O)C2CC2)CC1 [olaparib]
  fold decrease of IC50 values in Signature 3-positive vs Signature 3-negative cell lines: 2.6 fold
